According to patent US9073820B2, “Pharmaceutical compositions comprising napthamides” (OREGON HEALTH & SCIENCE UNIVERSITY, priority 2011, dated 2015):
Where two headings read alike, the source gives them in different places.

Legend:
[1] = tested on: MDA-MB-231 (human breast cancer cells); assay: MTT cell growth inhibition, 72 h, MDA-MB-231; format: cell-based; conditions: MDA-MB-231, 72 h, read-out: MDA-MB-231 (GI50)
Experimental: (§1) A549 (human lung cancer cells), MCF-7 (human breast cancer cells), MDA-MB-231 (human breast cancer cells) and MDA-MB-468 cells (human breast cancer cells) were maintained in Dulbecco's modified Eagle medium (DMEM, Invitrogen, Carlsbad, Calif.) supplemented with 10% (v/v) fetal calf serum (Sigma, St. Louis, Mo.), 10 μg/mL penicillin and 10 μg/mL streptomycin (Invitrogen, Carlsbad, Calif.) at 37° C. under 5% CO2. On the day of experiment, different concentrations of the drugs (final concentration 10^−8-10^−4 M) in duplicates were added to the cells and the cells were further incubated for 72 h. Then, the number of live cells was quantified by 3-(4,5-dimethyl-2-thiazolyl)-2,5-diphenyl-2H-tetrazolium bromide (MTT reagent, Sigma, St. Louis, Mo.).
(§2) The amount of reduced MTT formazan generated by live cells was determined by its absorbance at 570 nm after subtracting the background absorbance at 690 nm. The percent of cell growth was expressed as (A570(treated)−A570(initial))/(A570(vehicle treated)−A570(initial))*100, where A570(initial) represents initial cell population when drugs are added. The GI50 were derived from non-linear regression analysis of the dose-response curve using Prism 4.0 (GraphPad). […] Data were presented as mean±SD of at least two measurements in duplicates unless noted.

[2] = tested on: MDA-MB-468 cells (human breast cancer cells); assay: MTT cell growth inhibition, 72 h, MDA-MB-468; format: cell-based; conditions: MDA-MB-468, 72 h, read-out: MDA-MB-468 (GI50)
Experimental: as §1, §2

[3] = tested on: CREB-mediated gene transcription; assay: CREB reporter (pCRE-RLuc) assay in HEK 293T cells, forskolin-stimulated; format: cell-based; conditions: Homo sapiens, 5 h, read-out: CREB reporter inhibition (IC50)
Experimental: HEK293T cells in a 10-cm plate were transfected with pCRE-RLuc (6.0 μg) using Lipofectamine™ 2000 (Invitrogen, Carlsbad, Calif.) according to manufacturer's protocol. After 3 h, the transfected cells were collected and replated into 96-well plates (1-2×10^4 cells/well). The cells were allowed to attach to the bottom of the wells for overnight, when compounds of different concentrations were added to the cells. Forskolin (final concentration of 10 μM, LC Laboratories, Woburn, Mass.) was added 30 min after the addition of the compounds. The cells were then incubated at 37° C. for 5 h. The media in the wells were removed and the cells were then lysed in 30 μL of 1×Renilla luciferase lysis buffer (Promega, Madison, Wis.). To measure Renilla luciferase activity, five μL of the lysate was combined with 30 μL of benzyl-coelenterazine (Nanolight, Pinetop, Ariz.) solution in PBS (pH 7.4, 10 μg/mL). The sample protein concentration was determined by Dye Reagent Concentrate (Bio-Rad, Hercules, Calif.). The Renilla luciferase activity was normalized to protein content in each well and expressed as relative luciferase unit/μg protein (RLU/μg protein). The IC50 was derived from non-linear regression analysis of the RLU/μg protein-concentration curve in Prism 5.0 (La Jolla, Calif.).

[4] = biological target: T1, KIX-KID (Homo sapiens, UniProt Q92793); assay: KIX-KID inhibition, split Renilla luciferase complementation (RLucC-KIX and KID-RLucN); format: binding; conditions: 4° C., 24 h
T1 construct: made in house
Experimental: RLucC-KIX (15 ng) and KID-RLucN-containing cell lysates (0.5 mg) were mixed together in Renilla luciferase lysis buffer (Promega, Madison, Wis.) in the presence of different concentrations of compounds. The final volume of the incubation mixture is 30 μL. The mixture was incubated at 4° C. for 24 h. Then Renilla luciferase activity was measured by combining 5 μL of incubation mixture with 30 μL of coelenterazine solution in PBS (pH 7.4, 10 μg/mL).

[5] = tested on: A549 (human lung cancer cells); assay: MTT cell growth inhibition, 72 h, A549; format: cell-based; conditions: A549, 72 h, read-out: A549 (GI50)
Experimental: as §1, §2

[6] = tested on: MCF-7 (human breast cancer cells); assay: MTT cell growth inhibition, 72 h, MCF-7; format: cell-based; conditions: MCF7, 72 h, read-out: MCF-7 (GI50)
Experimental: as §1, §2

T1 sequence (Q92793 587-666 limits assumed): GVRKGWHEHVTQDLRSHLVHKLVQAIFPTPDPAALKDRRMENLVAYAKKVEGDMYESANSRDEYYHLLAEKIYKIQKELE

**Q.** How did the GI50 ([1]; MTT, mean±SD) turn out when `O=C(Nc1ccc(Cl)cc1)c1cc2ccccc2cc1O` [Compound 1, reference compound] was run?
**A.** 2350 ± 600 nM

**Q.** What about the GI50 ([2]; MTT, mean±SD) of the same molecule?
**A.** 1460 ± 300 nM

**Q.** And the IC50 ([3]; HEK 293T, forskolin 10 μM)?
**A.** 2290 ± 310 nM

**Q.** What about the IC50 [4] of the same molecule?
**A.** 2900 ± 810 nM

**Q.** `COc1cc2ccccc2cc1C(=O)Nc1ccccc1OC(=O)c1cc2ccccc2cc1OC` [Compound 2, reference compound] was tested. Which GI50 ([5]; MTT, mean±SD) did it give?
**A.** 8780 ± 2550 nM

**Q.** And the GI50 ([6]; MTT, mean±SD)?
**A.** 3380 ± 490 nM

**Q.** What about the GI50 ([1]; MTT, mean±SD) of the same molecule?
**A.** 23500 ± 2270 nM

**Q.** What about the GI50 ([2]; MTT, mean±SD) of the same molecule?
**A.** 8130 ± 5470 nM

**Q.** What about the IC50 ([3]; HEK 293T, forskolin 10 μM) of the same molecule?
**A.** 1950 ± 1140 nM

**Q.** And the IC50 [4]?
**A.** 170 ± 120 nM

**Q.** Which IC50 ([3]; HEK 293T, forskolin 10 μM) does the source give for `NCCCOc1cc2ccccc2cc1C(=O)Nc1ccc(Cl)cc1OC(=O)c1cc2ccccc2cc1OCCCN` [Compound 3, reference compound] here?
**A.** 2270 ± 280 nM

**Q.** What about the IC50 [4] of the same molecule?
**A.** 8020 ± 360 nM

**Q.** For `NCCCOc1cc2ccccc2cc1C(=O)NCCOc1nc2ccccc2cc1C(=O)Nc1ccc(Cl)cc1O` [Compound 6], which GI50 [1] is on record?
**A.** 190 ± 120 nM

**Q.** What about the GI50 [2] of the same molecule?
**A.** 13 ± 2 nM

**Q.** And the IC50 ([3]; HEK-293T)?
**A.** 72 ± 9 nM

**Q.** What does the source list for `NCCCOc1nc2ccccc2cc1C(=O)NCCOc1cc2ccccc2cc1C(=O)Nc1ccc(Cl)cc1O` [Compound 7]?
**A.** GI50 [5]: 640 nM; GI50 [6]: 190 nM; GI50 [1]: 840 ± 180 nM; GI50 [2]: 140 ± 24 nM; IC50 ([3]; HEK-293T): 170 ± 66 nM

**Q.** Which GI50 [1] does the source give for `NCCCOc1nc2ccccc2cc1C(=O)NCCOc1nc2ccccc2cc1C(=O)Nc1ccc(Cl)cc1O` [Compound 8] here?
**A.** 540 ± 130 nM

**Q.** What about the GI50 [2] of the same molecule?
**A.** 290 ± 55 nM

**Q.** What about the IC50 ([3]; HEK-293T) of the same molecule?
**A.** 4030 ± 200 nM

**Q.** Which results are given for `NCCCOc1nc2ccccc2cc1C(=O)NCCOc1nc2ccccc2cc1C(=O)Nc1ccc(Cl)cc1F` [Compound 9]?
**A.** GI50 [1]: 370 ± 250 nM; IC50 ([3]; HEK-293T): 440 ± 340 nM
